Measured values reported in ChEMBL document CHEMBL5512668, “Macrocyclic Azapeptide Nitriles: Structure-Based Discovery of Potent SARS-CoV-2 Main Protease Inhibitors as Antiviral Drugs” (J Med Chem, 2024).

Columns and labels:
[1] = molecular target: Replicase polyprotein 1ab (Severe acute respiratory syndrome coronavirus 2, UniProt P0DTD1)
[2] = molecular target: Replicase polyprotein 1ab (Severe acute respiratory syndrome coronavirus 2) (UniProt P0DTD1); details: dose 1.0 µM, time 65.0 min

Structure (SMILES)	IC50 [1] [nM]	inhibition [2] [%]
CN1C(=O)[C@H](Cc2ccccc2)N(C(=O)COc2ccc(Cl)cc2Cl)CCCCOc2ccc(F)cc2CN1C#N	42	–
CN(C(=O)[C@H](Cc1ccccc1)NC(=O)OCc1ccccc1)N(C#N)Cc1ccc(Br)c(Cl)c1F	125	–
CN(C(=O)[C@H](Cc1ccccc1)NC(=O)[C@@H](NC(=O)c1ccc(-c2cccs2)s1)C(C)(C)C)N(C#N)Cc1ccc(Cl)cc1	534	–
CN(C(=O)[C@H](Cc1ccccc1)NC(=O)OCc1ccccc1)N(C#N)Cc1ccc(Br)cc1Cl	143	–
CN(C(=O)[C@H](Cc1ccccc1)NC(=O)OCc1ccccc1)N(C#N)Cc1c(F)cc(Br)cc1F	81	–
CN(C(=O)[C@H](Cc1ccccc1)NC(=O)[C@@H](NC(=O)C1(F)CC1)C(C)(C)C)N(C#N)Cc1ccc(Cl)cc1	50	–
CN(C(=O)[C@H](Cc1ccccc1)NC(=O)OCc1ccccc1)N(C#N)Cc1cc(Cl)ccc1F	119	–
COc1ccc(OCC(=O)N[C@@H](Cc2ccccc2)C(=O)N(C)N(C#N)Cc2ccc(Cl)cc2)cc1	1230	–
CN(C(=O)[C@H](Cc1ccccc1)NC(=O)OCc1ccccc1)N(C#N)Cc1ccc([N+](=O)[O-])cc1	210	–
COc1ccc(CN(C#N)N(C)C(=O)[C@H](Cc2ccccc2)NC(=O)OCc2ccccc2)cc1	345	–
Cc1csc(C(=O)N[C@H](C(=O)N[C@@H](Cc2ccccc2)C(=O)N(C)N(C#N)Cc2ccc(Cl)cc2)C(C)(C)C)c1	71	–
CN(C(=O)[C@H](Cc1ccccc1)NC(=O)OCc1ccccc1)N(C#N)Cc1ccc(Br)c(Cl)c1	192	–
CN(C(=O)[C@@H](NC(=O)[C@@H](NC(=O)c1cccs1)C(C)(C)C)C(c1ccccc1)c1ccccc1)N(C#N)Cc1cccc(Cl)c1F	–	10
CN(C(=O)[C@@H]1Cc2ccccc2CN1C(=O)COc1ccc(Cl)cc1Cl)N(C#N)Cc1ccc(Cl)cc1	–	11
CN1C(=O)[C@H](Cc2ccccc2)NC(=O)COCCOc2ccc(F)cc2CN1C#N	226	–
CN(C(=O)[C@H](Cc1ccccc1)NC(=O)[C@@H](NC(=O)C(F)(F)F)C(C)(C)C)N(C#N)Cc1ccc(Cl)cc1	33	–
CN(C(=O)[C@H](Cc1ccccc1)NC(=O)OCc1ccccc1)N(C#N)CC1CCNC1=O (some centres undefined)	–	21
COc1ccc(NCC(=O)N[C@@H](Cc2ccccc2)C(=O)N(C)N(C#N)Cc2ccc(Cl)cc2)c(Cl)c1	673	–
CN(C(=O)[C@H](Cc1ccccc1)NC(=O)COc1cccc(Cl)c1)N(C#N)Cc1ccc(Cl)cc1	1060	–
CN1C(=O)[C@H](Cc2ccccc2)N(C(=O)COc2ccc(Cl)cc2Cl)CCCCCOc2ccc(F)cc2CN1C#N	48	–

Structure (SMILES)	IC50 [1] [nM]	inhibition [2] [%]
COc1cccc2[nH]c(C(=O)N[C@@H](Cc3ccccc3)C(=O)N(C)N(C#N)Cc3ccc(Cl)cc3)cc12	23	–
CN(C(=O)[C@@H]1CCCN1C(=O)[C@@H](NC(=O)c1cccs1)C(C)(C)C)N(C#N)Cc1cccc(Cl)c1F	–	5
CN(C(=O)[C@H](Cc1ccccc1)NC(=O)C1(Oc2ccc(Cl)cc2Cl)CCCCC1)N(C#N)Cc1ccc(Cl)cc1	–	7
CN(C(=O)[C@H](Cc1ccccc1)NC(=O)CNc1c(F)cccc1F)N(C#N)Cc1ccc(Cl)cc1	987	–
CN(C(=O)[C@H](Cc1ccccc1)NC(=O)OCc1ccccc1)N(C#N)Cc1ccc(Cl)cc1	260	–
COc1cccc(OCC(=O)N[C@@H](Cc2ccccc2)C(=O)N(C)N(C#N)Cc2ccc(Cl)cc2)c1	1230	–
CN1C(=O)[C@H](Cc2ccccc2)N(C(=O)COc2ccc(Cl)cc2Cl)CCCOc2ccc(F)cc2CN1C#N	25	–
COc1ccc(Cl)c(F)c1CN(C#N)N(C)C(=O)[C@H](Cc1ccccc1)NC(=O)OCc1ccccc1	392	–
CN(C(=O)[C@H](Cc1ccccc1)NC(=O)CNc1ccc(F)cc1F)N(C#N)Cc1ccc(Cl)cc1	952	–
CN(C(=O)[C@H](Cc1ccccc1)NC(=O)C1(NC(=O)c2cccs2)CC1)N(C#N)Cc1ccc(Cl)cc1	566	–
CN(C(=O)[C@H](Cc1ccccc1)NC(=O)OCc1ccccc1)N(C#N)Cc1cccc(F)c1	142	–
CN(C(=O)[C@H](Cc1ccccc1)NC(=O)OCc1ccccc1)N(C#N)Cc1cccc(Br)c1	86	–
CN(C(=O)[C@H](Cc1ccccc1)NC(=O)OCc1ccccc1)N(C#N)Cc1ccco1	206	–
CN(C(=O)[C@H](Cc1ccccc1)NC(=O)COc1cccc(F)c1Br)N(C#N)Cc1ccc(Cl)cc1	1020	–
CN(C(=O)[C@H](Cc1ccccc1)NC(=O)CNc1ccc(F)c(F)c1)N(C#N)Cc1ccc(Cl)cc1	343	–
CN(C(=O)[C@H](Cc1ccccc1)NC(=O)OCc1ccccc1)N(C#N)Cc1ccccc1Br	188	–
CN(C(=O)[C@H](Cc1ccc(F)cc1)NC(=O)[C@@H](NC(=O)c1cccs1)C(C)(C)C)N(C#N)Cc1cccc(Cl)c1F	25	–
CN(C(=O)[C@H](Cc1ccccc1)NC(=O)COc1ccc2c(c1)NC(=O)CC2)N(C#N)Cc1ccc(Cl)cc1	960	–
CN(C(=O)[C@H](Cc1ccccc1)NC(=O)[C@@H](Nc1ccc([N+](=O)[O-])cc1[N+](=O)[O-])C(C)(C)C)N(C#N)Cc1ccc(Cl)cc1	2250	–
COc1cccc(CN(C#N)N(C)C(=O)[C@H](Cc2ccccc2)NC(=O)OCc2ccccc2)c1F	118	–

Structure (SMILES)	IC50 [1] [nM]	inhibition [2] [%]
CN(C(=O)[C@H](Cc1ccccc1)NC(=O)OCc1ccccc1)N(C#N)Cc1ccccc1F	137	–
CN(C(=O)[C@H](Cc1ccccc1)NC(=O)CCc1ccc(F)c(F)c1)N(C#N)Cc1ccc(Cl)cc1	1420	–
CN(C(=O)[C@H](Cc1ccccc1)NC(=O)OCc1ccccc1)N(C#N)Cc1ccc(Br)c(F)c1	206	–
CN(C(=O)[C@H](Cc1ccccc1)NC(=O)c1cc2cc(Cl)ccc2[nH]1)N(C#N)Cc1ccc(Cl)cc1	77	–
CN(C(=O)[C@H](Cc1ccccc1)NC(=O)OCc1ccccc1)N(C#N)Cc1ccsc1	416	–
CN(C(=O)[C@H](Cc1ccccc1)NC(=O)OCc1ccccc1)N(C#N)Cc1ccccc1Cl	149	–
CCCS(=O)(=O)N[C@H](C(=O)N[C@@H](Cc1ccccc1)C(=O)N(C)N(C#N)Cc1ccc(Cl)cc1)C(C)(C)C	156	–
COc1ccc(OC)c(CN(C#N)N(C)C(=O)[C@H](Cc2ccccc2)NC(=O)OCc2ccccc2)c1	826	–
CN(C(=O)[C@H](Cc1ccccc1)NC(=O)OCc1ccccc1)N(C#N)Cc1cccc(Cl)c1F	35	–
CN(C(=O)[C@H](Cc1ccccc1)NC(=O)COc1ccc(Cl)cc1Cl)N(C#N)Cc1ccc(Cl)cc1	1820	–
CN(C(=O)[C@H](Cc1ccccc1)NC(=O)COc1ccc(F)c(F)c1)N(C#N)Cc1ccc(Cl)cc1	1150	–
CN(C(=O)[C@H](Cc1ccccc1)NC(=O)OCc1ccccc1)N(C#N)Cc1ccc(Br)cc1F	104	–
COc1c(Cl)cccc1CN(C#N)N(C)C(=O)[C@H](Cc1ccccc1)NC(=O)OCc1ccccc1	425	–
CN(C(=O)[C@H](Cc1ccccc1)NC(=O)COc1ccc(Cl)cc1)N(C#N)Cc1ccc(Cl)cc1	1300	–
CN(C(=O)[C@H](Cc1ccccc1)NC(=O)OCc1ccccc1)N(C#N)Cc1cccc(Cl)c1	88	–
CN(C(=O)[C@H](Cc1ccccc1)NC(=O)COc1ccc(F)cc1)N(C#N)Cc1ccc(Cl)cc1	1220	–
CN(C(=O)[C@H](Cc1ccccc1)NC(=O)OCc1ccccc1)N(C#N)Cc1ccc(Br)cc1	200	–
CN(C(=O)[C@H](Cc1ccccc1)NC(=O)COc1cccc2ccccc12)N(C#N)Cc1ccc(Cl)cc1	1060	–
CN(C(=O)[C@H](Cc1ccccc1)NC(=O)OCc1ccccc1)N(C#N)Cc1ccc(F)cc1	294	–
